{"source": "paper PMC9961652", "about": "(International Journal of Molecular Sciences, 2023)", "key": {"[1]": {"test_system": "RhoA", "design": "method as in PMID 22726684, PMID 22956131", "conditions": "cited from earlier work"}, "[2]": {"test_system": "RhoA, Rac1 and Cdc42", "design": "method as in PMID 22726684, PMID 27681226", "conditions": "cited from earlier work"}, "[3]": {"experiment": "Pharmacokinetic profile (unpublished data)"}, "[4]": {"test_system": "washed human platelets", "experiment": "Platelet aggregation induced by AA, U46619, ADP or thrombin", "format": "cell-based", "conditions": "10 µM S-G04 or 20 µM R-G04, 2 min pre-incubation", "text": "TxA2 is a metabolite derived from AA via the COX pathway, a potent vasoconstrictor, and a platelet agonist that results in irreversible platelet aggregation. […] The data in Figure 7 show the potential of the RhoA inhibitors to inhibit platelet aggregation mediated by diverse agonists, i.e., TxA2, ADP, U46619, AA, and thrombin, and ATP secretion, highlighting the potential to inhibit multiple-agonist-mediated platelet activation pathways at micromolar concentrations.\n(A–D) Washed human platelets were pre-incubated with 10 µM S-G04 or 20 µM R-G04 for 2 min before being stimulated with Arachidonic Acid (AA), U46619, ADP, or Thrombin. The % platelet aggregation was measured 5 min after agonist stimulation. (E) Washed human platelets were pre-incubated with 10 µM S-G04 or 20 µM R-G04 for 2 min and with Chrono-lume® for 30 s at 37 °C before being stimulated with 0.1 U/mL Thrombin. […] TxB2 formation was determined using a TxB2 ELISA kit. The differences among DMSO, R-G04, and S-G04 were analyzed using t-test, and the results are shown as means ± SDs of three independent experiments. (* p < 0.05, ** p < 0.01, *** p < 0.001, and **** p < 0.0001).\nThe in vitro antiplatelet activity of the compounds was assayed on washed human platelets using light transmission aggregometry. Platelet aggregation was performed using a 4-channel Lumi-aggregometer (Chronolog, PA, USA) at 37 °C and stirring speed of 900 rpm. A volume of 250 µL of washed human platelets (2.5 × 10^8/mL) was pre-warmed to 37 °C along with the compounds or DMSO (0.1%) for 2 min before the addition of agonists such as collagen, AA, U46619 (a stable synthetic analog of thromboxane A2), ADP, and thrombin. For ATP secretion, platelets were pre-incubated with a luciferin/luciferase kit (Chrono-lume®) for 30 s at 37 °C before the addition of the agonist. The reactions were allowed to proceed for at least 4 min, and the results of platelet aggregation and ATP secretion were determined using Aggrolink software. Platelet aggregation was expressed as the maximum change in the light transmission, where the 100% value corresponded to treatment with the agonist alone. Compounds were evaluated in triplicate at nine compound concentrations ranging from 50 µM to 1 µM. The half-maximal inhibitory concentration (IC50) value was calculated as the concentration of the inhibitor causing 50% inhibition of aggregation."}, "[5]": {"test_system": "washed human platelets", "experiment": "Wash-out reversibility of inhibition of collagen-induced platelet aggregation", "format": "cell-based", "method": "The reversible inhibition of Rhosin in collagen-induced platelet aggregation was assessed with similar wash-out experiments, and this reversible nature of Rhosin makes it a valuable antiplatelet drug candidate (Supporting Information Figure S4A,B). After confirming the structures of the above six active analogs, similar wash-out experiments were performed to compare the reversible function of the active analogs with Rhosin reversibility."}, "[6]": {"test_system": "washed human platelets", "experiment": "Lactate dehydrogenase (LDH) leakage cytotoxicity assay", "format": "cell-based", "conditions": "50 µM; compared with positive control Triton X-100", "method": "The cytotoxicity of the active analogs was determined with the lactate dehydrogenase (LDH) leakage assay to ensure that platelet inhibition was a consequence of pharmacologic inhibition and not cytotoxicity. LDH is a stable cytosolic marker for membrane perturbation and is present in many cell types, including platelets.\nCompound cytotoxicity was assessed using LDH Cytotoxicity Assay Kit (No. 601170; Cayman Chemical, MI) as previously described. Washed human platelets (2.5 × 10^8/mL) were incubated at 37 °C for 10 min with the highest concentration of compounds (50 µM for R-G04 and S-G04, and 20 µM for Rhosin analogs) or the vehicle, dimethyl sulfoxide (DMSO) 0.1% or 10% Triton X-100, which served as the positive control. The platelets were centrifuged at 800× g for 8 min at 4 °C, and 100 µL of the supernatant was mixed with 100 µL of LDH reaction solution in a 96-well plate. The plate was incubated at 37 °C for 10 min under constant orbital shaking before measurement of the absorbance at 490 nm in a plate reader (BioTek Synergy LX multimode reader; Santa Clara, CA, USA)."}}}
{"smiles": "N[C@H](Cc1c[nH]c2ccccc12)C(=O)N/N=C/c1ccc2nccnc2c1", "note": "[R-G04]", "values": [{"measurement": "affinity of binding to the Trp58 region of the RhoA surface", "setting": "[1]", "value": "micromolar affinity"}, {"measurement": "specificity of inhibition of Rho GTPase activation", "setting": "[2]", "value": "specifically inhibits the activation of RhoA but not that of Rac1 and Cdc42"}, {"measurement": "pharmacokinetic profile", "setting": "[3]", "value": "poor pharmacokinetic profile"}, {"measurement": "AA-induced platelet aggregation", "setting": "[4]", "value": "failed to have the same inhibitory effect"}, {"measurement": "ADP-induced platelet aggregation", "setting": "[4]", "value": "significantly inhibited ADP-induced platelet aggregation"}, {"measurement": "U46619-induced platelet aggregation", "setting": "[4]", "value": "failed to have the same inhibitory effect"}, {"measurement": "thrombin-induced platelet aggregation", "setting": "[4]", "value": "failed to have the same inhibitory effect"}, {"measurement": "reversibility of inhibitory effect after wash-out", "setting": "[5]", "value": "reversible"}, {"measurement": "cytotoxicity, LDH assay", "setting": "[6]", "value": "neither R-G04 nor S-G04 induced significant human platelet cytolysis"}]}
{"smiles": "N[C@@H](Cc1c[nH]c2ccccc12)C(=O)N/N=C/c1ccc2nccnc2c1", "note": "[S-G04]", "values": [{"measurement": "AA-induced platelet aggregation", "setting": "[4]", "value": "suppressed the platelet activation"}, {"measurement": "ADP-induced platelet aggregation", "setting": "[4]", "value": "significantly inhibited ADP-induced platelet aggregation"}, {"measurement": "U46619-induced platelet aggregation", "setting": "[4]", "value": "suppressed the platelet activation"}, {"measurement": "thrombin-induced platelet aggregation", "setting": "[4]", "value": "suppressed the platelet activation"}, {"measurement": "cytotoxicity, LDH assay", "setting": "[6]", "value": "neither R-G04 nor S-G04 induced significant human platelet cytolysis"}]}
